According to ChEMBL document CHEMBL4020788, “Synthesis, SAR and molecular docking studies of benzo[d]thiazole-hydrazones as potential antibacterial and antifungal agents” (2017):
Calls of active or inactive are those of the source. The rule behind the calls is not given here.

Key:
Type in all cases: functional
Staphylococcus aureus [1] = assay: Antibacterial activity against Staphylococcus aureus at 25 ug/ml after 24 hrs by agar well diffusion method
Staphylococcus aureus [2] = assay: Antibacterial activity against Staphylococcus aureus at 50 ug/ml after 24 hrs by agar well diffusion method
Staphylococcus aureus [3] = assay: Antibacterial activity against Staphylococcus aureus at 75 ug/ml after 24 hrs by agar well diffusion method
Staphylococcus aureus [4] = assay: Antibacterial activity against Staphylococcus aureus at 100 ug/ml after 24 hrs by agar well diffusion method
Bacillus subtilis [5] = assay: Antibacterial activity against Bacillus subtilis at 25 ug/ml after 24 hrs by agar well diffusion method; conditions: for zone of inhibition at 25 µg/mL: read-out: DIZ
Bacillus subtilis [6] = assay: Antibacterial activity against Bacillus subtilis at 50 ug/ml after 24 hrs by agar well diffusion method; conditions: for zone of inhibition at 50 µg/mL: read-out: DIZ
Bacillus subtilis [7] = assay: Antibacterial activity against Bacillus subtilis at 75 ug/ml after 24 hrs by agar well diffusion method; conditions: for zone of inhibition at 75 µg/mL: read-out: DIZ
Bacillus subtilis [8] = assay: Antibacterial activity against Bacillus subtilis at 100 ug/ml after 24 hrs by agar well diffusion method; conditions: for zone of inhibition at 100 µg/mL: read-out: DIZ
Escherichia coli [9] = assay: Antibacterial activity against Escherichia coli at 25 ug/ml after 24 hrs by agar well diffusion method; conditions: for zone of inhibition at 25 µg/mL: read-out: DIZ
Escherichia coli [10] = assay: Antibacterial activity against Escherichia coli at 50 ug/ml after 24 hrs by agar well diffusion method; conditions: for zone of inhibition at 50 µg/mL: read-out: DIZ
Escherichia coli [11] = assay: Antibacterial activity against Escherichia coli at 75 ug/ml after 24 hrs by agar well diffusion method; conditions: read-out: DIZ
Escherichia coli [12] = assay: Antibacterial activity against Escherichia coli at 100 ug/ml after 24 hrs by agar well diffusion method; conditions: read-out: DIZ
Klebsiella pneumoniae [13] = assay: Antibacterial activity against Klebsiella pneumoniae at 25 ug/ml after 24 hrs by agar well diffusion method
Klebsiella pneumoniae [14] = assay: Antibacterial activity against Klebsiella pneumoniae at 50 ug/ml after 24 hrs by agar well diffusion method
Klebsiella pneumoniae [15] = assay: Antibacterial activity against Klebsiella pneumoniae at 75 ug/ml after 24 hrs by agar well diffusion method; conditions: for zone of inhibition at 75 µg/mL: read-out: DIZ
Klebsiella pneumoniae [16] = assay: Antibacterial activity against Klebsiella pneumoniae at 100 ug/ml after 24 hrs by agar well diffusion method; conditions: for zone of inhibition at 100 µg/mL: read-out: DIZ
Staphylococcus aureus [17] = assay: Antibacterial activity against methicillin resistant Staphylococcus aureus MRSA090 at 25 ug/ml after 24 hrs by agar well diffusion method; conditions: MRSA090, 24 h, read-out: DIZ
Staphylococcus aureus [18] = assay: Antibacterial activity against methicillin resistant Staphylococcus aureus MRSA090 at 50 ug/ml after 24 hrs by agar well diffusion method; conditions: MRSA090, 24 h, read-out: DIZ
Staphylococcus aureus [19] = assay: Antibacterial activity against methicillin resistant Staphylococcus aureus MRSA090 at 75 ug/ml after 24 hrs by agar well diffusion method; conditions: MRSA090, 24 h, read-out: DIZ
Staphylococcus aureus [20] = assay: Antibacterial activity against methicillin resistant Staphylococcus aureus MRSA090 at 100 ug/ml after 24 hrs by agar well diffusion method; conditions: MRSA090, 24 h, read-out: DIZ
Aspergillus niger [21] = assay: Antifungal activity against Aspergillus niger at 25 ug/ml after 48 hrs by agar well diffusion method; conditions: for zone of inhibition at 25 µg/mL: read-out: DIZ
Aspergillus niger [22] = assay: Antifungal activity against Aspergillus niger at 50 ug/ml after 48 hrs by agar well diffusion method; conditions: for zone of inhibition at 50 µg/mL: read-out: DIZ
Aspergillus niger [23] = assay: Antifungal activity against Aspergillus niger at 75 ug/ml after 48 hrs by agar well diffusion method; conditions: for zone of inhibition at 75 µg/mL: read-out: DIZ
Aspergillus niger [24] = assay: Antifungal activity against Aspergillus niger at 100 ug/ml after 48 hrs by agar well diffusion method; conditions: for zone of inhibition at 100 µg/mL: read-out: DIZ
Fusarium verticillioides [25] = assay: Antifungal activity against Fusarium moniliforme at 25 ug/ml after 48 hrs by agar well diffusion method; conditions: for zone of inhibition at 25 µg/mL: read-out: DIZ
Fusarium verticillioides [26] = assay: Antifungal activity against Fusarium moniliforme at 50 ug/ml after 48 hrs by agar well diffusion method; conditions: for zone of inhibition at 50 µg/mL: read-out: DIZ
Fusarium verticillioides [27] = assay: Antifungal activity against Fusarium moniliforme at 75 ug/ml after 48 hrs by agar well diffusion method; conditions: for zone of inhibition at 75 µg/mL: read-out: DIZ
Fusarium verticillioides [28] = assay: Antifungal activity against Fusarium moniliforme at 100 ug/ml after 48 hrs by agar well diffusion method; conditions: for zone of inhibition at 100 µg/mL: read-out: DIZ
Fusarium oxysporum [29] = assay: Antifungal activity against Fusarium oxysporum at 25 ug/ml after 48 hrs by agar well diffusion method
Fusarium oxysporum [30] = assay: Antifungal activity against Fusarium oxysporum at 50 ug/ml after 48 hrs by agar well diffusion method; conditions: for zone of inhibition at 50 µg/mL: read-out: DIZ
Fusarium oxysporum [31] = assay: Antifungal activity against Fusarium oxysporum at 75 ug/ml after 48 hrs by agar well diffusion method; conditions: for zone of inhibition at 75 µg/mL: read-out: DIZ
Fusarium oxysporum [32] = assay: Antifungal activity against Fusarium oxysporum at 100 ug/ml after 48 hrs by agar well diffusion method; conditions: for zone of inhibition at 100 µg/mL: read-out: DIZ

Cc1cccc2nc(N/N=C/c3ccco3)sc12
diameter of the inhibition zone (DIZ) (Staphylococcus aureus [1]): inactive | diameter of the inhibition zone (DIZ) (Staphylococcus aureus [2]): inactive | diameter of the inhibition zone (DIZ) (Staphylococcus aureus [3]): inactive | diameter of the inhibition zone (DIZ) (Staphylococcus aureus [4]): inactive | diameter of the inhibition zone (DIZ) (Bacillus subtilis [5]): inactive | diameter of the inhibition zone (DIZ) (Bacillus subtilis [6]): inactive | diameter of the inhibition zone (DIZ) (Bacillus subtilis [7]): inactive | diameter of the inhibition zone (DIZ) (Bacillus subtilis [8]): inactive | zone of inhibition at 25 µg/mL (Escherichia coli [9]): 4 mm | zone of inhibition at 50 µg/mL (Escherichia coli [10]): 9 mm | zone of inhibition at 75 µg/mL (Escherichia coli [11]): 13 mm | zone of inhibition at 100 µg/mL (Escherichia coli [12]): 17 mm | zone of inhibition at 25 µg/mL (Klebsiella pneumoniae [13]; read-out: DIZ): 11 mm | zone of inhibition at 50 µg/mL (Klebsiella pneumoniae [14]; read-out: DIZ): 16 mm | zone of inhibition at 75 µg/mL (Klebsiella pneumoniae [15]): 21 mm | zone of inhibition at 100 µg/mL (Klebsiella pneumoniae [16]): 24 mm | zone of inhibition at 25 µg/mL (Staphylococcus aureus [17]): 5 mm | zone of inhibition at 50 µg/mL (Staphylococcus aureus [18]): 9 mm | zone of inhibition at 75 µg/mL (Staphylococcus aureus [19]): 13 mm | zone of inhibition at 100 µg/mL (Staphylococcus aureus [20]): 16 mm | zone of inhibition at 25 µg/mL (Aspergillus niger [21]): 10 mm | zone of inhibition at 50 µg/mL (Aspergillus niger [22]): 13 mm | zone of inhibition at 75 µg/mL (Aspergillus niger [23]): 17 mm | zone of inhibition at 100 µg/mL (Aspergillus niger [24]): 22 mm | zone of inhibition at 25 µg/mL (Fusarium verticillioides [25]): 10 mm | zone of inhibition at 50 µg/mL (Fusarium verticillioides [26]): 13 mm | zone of inhibition at 75 µg/mL (Fusarium verticillioides [27]): 18 mm | zone of inhibition at 100 µg/mL (Fusarium verticillioides [28]): 21 mm | zone of inhibition at 25 µg/mL (Fusarium oxysporum [29]; read-out: DIZ): 4 mm | zone of inhibition at 50 µg/mL (Fusarium oxysporum [30]): 10 mm | zone of inhibition at 75 µg/mL (Fusarium oxysporum [31]): 14 mm | zone of inhibition at 100 µg/mL (Fusarium oxysporum [32]): 18 mm

Cc1cccc2nc(N/N=C/c3ccc(O)cc3Br)sc12
diameter of the inhibition zone (DIZ) (Staphylococcus aureus [1]): inactive | diameter of the inhibition zone (DIZ) (Staphylococcus aureus [2]): inactive | diameter of the inhibition zone (DIZ) (Staphylococcus aureus [3]): inactive | diameter of the inhibition zone (DIZ) (Staphylococcus aureus [4]): inactive | zone of inhibition at 25 µg/mL (Bacillus subtilis [5]): 7 mm | zone of inhibition at 50 µg/mL (Bacillus subtilis [6]): 11 mm | zone of inhibition at 75 µg/mL (Bacillus subtilis [7]): 13 mm | zone of inhibition at 100 µg/mL (Bacillus subtilis [8]): 15 mm | zone of inhibition at 25 µg/mL (Escherichia coli [9]): 6 mm | zone of inhibition at 50 µg/mL (Escherichia coli [10]): 9 mm | zone of inhibition at 75 µg/mL (Escherichia coli [11]): 11 mm | zone of inhibition at 100 µg/mL (Escherichia coli [12]): 16 mm | diameter of the inhibition zone (DIZ) (Klebsiella pneumoniae [13]): inactive | diameter of the inhibition zone (DIZ) (Klebsiella pneumoniae [14]): inactive | zone of inhibition at 75 µg/mL (Klebsiella pneumoniae [15]): 11 mm | zone of inhibition at 100 µg/mL (Klebsiella pneumoniae [16]): 14 mm | zone of inhibition at 25 µg/mL (Staphylococcus aureus [17]): 7 mm | zone of inhibition at 50 µg/mL (Staphylococcus aureus [18]): 11 mm | zone of inhibition at 75 µg/mL (Staphylococcus aureus [19]): 14 mm | zone of inhibition at 100 µg/mL (Staphylococcus aureus [20]): 17 mm | diameter of the inhibition zone (DIZ) (Aspergillus niger [21]): inactive | diameter of the inhibition zone (DIZ) (Aspergillus niger [22]): inactive | diameter of the inhibition zone (DIZ) (Aspergillus niger [23]): inactive | diameter of the inhibition zone (DIZ) (Aspergillus niger [24]): inactive | diameter of the inhibition zone (DIZ) (Fusarium verticillioides [25]): inactive | diameter of the inhibition zone (DIZ) (Fusarium verticillioides [26]): inactive | diameter of the inhibition zone (DIZ) (Fusarium verticillioides [27]): inactive | diameter of the inhibition zone (DIZ) (Fusarium verticillioides [28]): inactive | diameter of the inhibition zone (DIZ) (Fusarium oxysporum [29]): inactive | diameter of the inhibition zone (DIZ) (Fusarium oxysporum [30]): inactive | diameter of the inhibition zone (DIZ) (Fusarium oxysporum [31]): inactive | diameter of the inhibition zone (DIZ) (Fusarium oxysporum [32]): inactive

Cc1cccc2nc(N/N=C/c3ccc(Cl)cc3)sc12
zone of inhibition at 25 µg/mL (Staphylococcus aureus [1]; read-out: DIZ): 5 mm | zone of inhibition at 50 µg/mL (Staphylococcus aureus [2]; read-out: DIZ): 9 mm | zone of inhibition at 75 µg/mL (Staphylococcus aureus [3]; read-out: DIZ): 11 mm | zone of inhibition at 100 µg/mL (Staphylococcus aureus [4]; read-out: DIZ): 13 mm | zone of inhibition at 25 µg/mL (Bacillus subtilis [5]): 7 mm | zone of inhibition at 50 µg/mL (Bacillus subtilis [6]): 9 mm | zone of inhibition at 75 µg/mL (Bacillus subtilis [7]): 11 mm | zone of inhibition at 100 µg/mL (Bacillus subtilis [8]): 14 mm | diameter of the inhibition zone (DIZ) (Escherichia coli [9]): inactive | diameter of the inhibition zone (DIZ) (Escherichia coli [10]): inactive | zone of inhibition at 75 µg/mL (Escherichia coli [11]): 6 mm | zone of inhibition at 100 µg/mL (Escherichia coli [12]): 10 mm | diameter of the inhibition zone (DIZ) (Klebsiella pneumoniae [13]): inactive | diameter of the inhibition zone (DIZ) (Klebsiella pneumoniae [14]): inactive | diameter of the inhibition zone (DIZ) (Klebsiella pneumoniae [15]): inactive | diameter of the inhibition zone (DIZ) (Klebsiella pneumoniae [16]): inactive | zone of inhibition at 25 µg/mL (Staphylococcus aureus [17]): 4 mm | zone of inhibition at 50 µg/mL (Staphylococcus aureus [18]): 9 mm | zone of inhibition at 75 µg/mL (Staphylococcus aureus [19]): 12 mm | zone of inhibition at 100 µg/mL (Staphylococcus aureus [20]): 15 mm | zone of inhibition at 25 µg/mL (Aspergillus niger [21]): 8 mm | zone of inhibition at 50 µg/mL (Aspergillus niger [22]): 13 mm | zone of inhibition at 75 µg/mL (Aspergillus niger [23]): 16 mm | zone of inhibition at 100 µg/mL (Aspergillus niger [24]): 19 mm | zone of inhibition at 25 µg/mL (Fusarium verticillioides [25]): 11 mm | zone of inhibition at 50 µg/mL (Fusarium verticillioides [26]): 14 mm | zone of inhibition at 75 µg/mL (Fusarium verticillioides [27]): 20 mm | zone of inhibition at 100 µg/mL (Fusarium verticillioides [28]): 26 mm | zone of inhibition at 50 µg/mL (Fusarium oxysporum [30]): 11 mm | zone of inhibition at 75 µg/mL (Fusarium oxysporum [31]): 14 mm | zone of inhibition at 100 µg/mL (Fusarium oxysporum [32]): 17 mm
